# Experiments:
# Assay type in all cases: cell-based
# Details in all cases: 1 nM mibolerone, 24 hours
# AR [1] = biological target: T1, AR (Homo sapiens, UniProt P10275, T878A); test: PSA mRNA expression (Northern blot) in C4-2 cells; design: The androgen depletion independent (ADI) LNCaP-derived C4-2 cell line was purchased from UroCor; endogenous in cells; host or cells: C4-2
# T1 sequence (P10275 1-920 T878A): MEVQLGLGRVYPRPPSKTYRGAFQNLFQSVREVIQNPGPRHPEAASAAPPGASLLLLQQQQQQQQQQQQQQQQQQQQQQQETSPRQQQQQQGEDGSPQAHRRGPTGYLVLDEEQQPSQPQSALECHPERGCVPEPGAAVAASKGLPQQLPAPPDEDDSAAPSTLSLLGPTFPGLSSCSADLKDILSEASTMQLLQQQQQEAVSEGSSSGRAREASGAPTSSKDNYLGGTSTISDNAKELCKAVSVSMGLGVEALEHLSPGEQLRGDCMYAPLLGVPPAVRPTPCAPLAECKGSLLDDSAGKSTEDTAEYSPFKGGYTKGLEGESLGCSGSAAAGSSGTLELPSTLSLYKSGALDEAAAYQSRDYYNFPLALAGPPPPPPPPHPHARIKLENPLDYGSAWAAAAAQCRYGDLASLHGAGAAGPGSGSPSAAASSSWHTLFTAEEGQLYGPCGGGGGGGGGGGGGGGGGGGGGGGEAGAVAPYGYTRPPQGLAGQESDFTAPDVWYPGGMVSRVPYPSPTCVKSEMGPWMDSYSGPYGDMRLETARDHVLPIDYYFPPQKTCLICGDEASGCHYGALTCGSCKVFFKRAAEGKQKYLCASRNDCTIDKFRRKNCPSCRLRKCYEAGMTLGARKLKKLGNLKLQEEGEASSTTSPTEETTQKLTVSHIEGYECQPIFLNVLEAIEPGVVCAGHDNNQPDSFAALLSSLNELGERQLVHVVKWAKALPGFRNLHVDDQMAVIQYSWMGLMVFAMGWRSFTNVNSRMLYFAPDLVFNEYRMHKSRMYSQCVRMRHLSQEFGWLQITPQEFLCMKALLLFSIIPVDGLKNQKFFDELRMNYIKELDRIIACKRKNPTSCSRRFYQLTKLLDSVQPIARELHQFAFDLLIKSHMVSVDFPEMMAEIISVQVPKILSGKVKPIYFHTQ
# Method: (§1) For androgen response experiments, LNCaP and C4-2 cells were grown in serum-free medium or medium supplemented with 10% charcoal stripped (steroid depleted) serum (CSS) for 48 hours. […] The cells were cultured for an additional 24 hours and then harvested. For C4-2 siRNA-transfection experiments, culture medium was replaced 24 hours post-transfection with RPMI containing 5% CSS. The cells were harvested after 48 hours.
# For siRNA transfections, C4-2 cells were seeded at a density of 1.8×10^6 cells on 10 cm dishes in antibiotic-free RPMI 1640 containing 10% FBS. Cells were transfected 24 hours later with 500 pmol of a pool of four siRNAs targeted to the AR (AR SmartPool; Dharmacon, Lafayette, Colo.), or a pool of four non-targeted, control siRNAs (Dharmacon) using 25 μg Lipofectamine (Invitrogen, Carlsbad, Calif.) according to the manufacturer's protocol.
# Total cellular RNA was isolated using acid-guanidinium phenol/chloroform extraction as described elsewhere (Chomczynski and Sacchi, Anal Biochem. 162:156-9, (1987)). Equal amounts of RNA (15 μg per lane) were fractionated on 1% denaturing formaldehyde-agarose gels. RNA was transferred to Hybond nylon membranes (Amersham, Piscataway, N.J.), UV cross-linked, and then hybridized with cDNA probes specific for PSA or GAPDH labeled with α^32P-dCTP using a RadPrime labeling kit (Invitrogen). […]
# AR [2] = biological target: T1, AR; test: PSA mRNA expression (Northern blot) in LNCaP cells; design: The androgen depletion independent (ADI) LNCaP-derived C4-2 cell line was purchased from UroCor; endogenous in cells; host or cells: C4-2
# Method: as §1
# Total cellular RNA was isolated using acid-guanidinium phenol/chloroform extraction as described elsewhere (Chomczynski and Sacchi, Anal Biochem. 162:156-9, (1987)). Equal amounts of RNA (15 μg per lane) were fractionated on 1% denaturing formaldehyde-agarose gels. RNA was transferred to Hybond nylon membranes (Amersham, Piscataway, N.J.), UV cross-linked, and then hybridized with cDNA probes specific for PSA or GAPDH labeled with α^32P-dCTP using a RadPrime labeling kit (Invitrogen). Autoradiography was performed at −80° C. using an intensifier screen (Kodak).
# AR [3] = biological target: T1, AR; test: PSAenh(ARE)-E4-LUC luciferase reporter assay in LNCaP cells; design: endogenous in cells
# Method: The cells were harvested after an additional 24 hours. The transfection efficiency was typically 50-70%.
structure (smiles),measurement,setting,value
C[C@@H]1CC2=CC(=O)CC[C@@H]2[C@H]2CC[C@@]3(C)[C@@H](CC[C@]3(C)O)[C@@H]21 [mibolerone],PSA expression on androgen treatment,AR [1],further increased
same,PSA mRNA expression on androgen treatment,AR [2],induced high levels of PSA mRNA expression
same,activation of the ARE-driven promoter PSAenh(ARE)E4-LUC,AR [3],robust activation

# — US20080014584A1, “MODULATING ANDROGEN RECEPTOR ACTIVITY” (MAYO FOUNDATION FOR MEDICAL EDUCATION AND RESEARCH, priority 2006, published 2008)
